Data published in ChEMBL document CHEMBL3860022, “Do cinnamylideneacetophenones have antioxidant properties and a protective effect toward the oxidation of phosphatidylcholines?” (Eur J Med Chem, 2016).
Activity calls are given as the source filed them. No cut-off for these calls is given here.

Legend:
Format in all cases: functional
[1] = Antioxidant activity assessed as DPPH free radical scavenging activity after 60 mins
[2] = Antioxidant activity assessed as AAPH free radical scavenging activity measured every min during 240 mins by fluorescein-based oxygen radical absorption capacity assay
[3] = Antioxidant activity assessed as AAPH free radical scavenging activity by measuring trolox equivalent at 1.5 to 35 umol/L measured every min during 240 mins by fluorescein-based oxygen radical absorption capacity assay
[4] = Antioxidant activity assessed as AAPH free radical scavenging activity by measuring trolox equivalent at 75 to 350 umol/L measured every min during 240 mins by fluorescein-based oxygen radical absorption capacity assay
[5] = Antioxidant activity assessed as inhibition of fenton reaction-mediated PLPC peroxidation by measuring ratio of oxidized PLPC/unmodified PLPC at 1 mg/ml incubated in dark for 1 hr to 7 days by mass spectroscopic analysis
[6] = Antioxidant activity assessed as inhibition of fenton reaction-mediated PLPC peroxidation by measuring ratio of dMPC/unmodified PLPC at 1 mg/ml incubated in dark for 1 hr to 7 days by mass spectroscopic analysis
[7] = Antioxidant activity assessed as DPPH free radical scavenging activity by measuring trolox equivalent at 10 to 100 umol/L after 60 mins
[8] = Antioxidant activity assessed as inhibition of fenton reaction-mediated PLPC peroxidation at 2 mg/ml incubated in dark for 1 hr by mass spectroscopic analysis
[9] = Antioxidant activity assessed as inhibition of fenton reaction-mediated PLPC peroxidation at 2 mg/ml incubated in dark for 3 days by mass spectroscopic analysis
[10] = Antioxidant activity assessed as inhibition of fenton reaction-mediated PLPC peroxidation by measuring ratio of [dMPC + H]+/[PLPC + H]+ at 2 mg/ml incubated in dark for 1 hr to 7 days by mass spectroscopic analysis
[11] = Antioxidant activity assessed as inhibition of fenton reaction-mediated PLPC peroxidation by measuring ratio of oxidized PLPC/unmodified PLPC at 2 mg/ml incubated in dark for 1 hr to 7 days by mass spectroscopic analysis
[12] = Antioxidant activity assessed as DPPH free radical scavenging activity by measuring trolox equivalent at 1.5 to 35 umol/L after 60 mins
[13] = Antioxidant activity assessed as AAPH free radical scavenging activity by measuring trolox equivalent at 0.5 to 10 umol/L measured every min during 240 mins by fluorescein-based oxygen radical absorption capacity assay
[14] = Antioxidant activity assessed as inhibition of fenton reaction-mediated PLPC peroxidation by measuring ratio of [dMPC + H]+/[PLPC + H]+ at 1 mg/ml incubated in dark for 1 hr to 7 days by mass spectroscopic analysis
[15] = Antioxidant activity assessed as inhibition of fenton reaction-mediated PLPC peroxidation at 1 mg/ml incubated in dark for 3 days by mass spectroscopic analysis
[16] = Antioxidant activity assessed as AAPH free radical scavenging activity by measuring trolox equivalent at 12.5 to 100 umol/L measured every min during 240 mins by fluorescein-based oxygen radical absorption capacity assay
[17] = Antioxidant activity assessed as DPPH free radical scavenging activity by measuring trolox equivalent at 5 to 35 umol/L after 60 mins

With Cc1c(C)c2c(c(C)c1O)CCC(C)(C(=O)O)O2 (stereo not given) [TROLOX] the IC50 [1] was 52.2 µM and the IC50 [2] was 4.2 µM.

Compound O=C(/C=C/C=C/c1ccccc1)c1ccc(O)cc1 has an Activity [3] of 4.1 equiv.

O=C(/C=C/c1ccccc1)c1ccccc1 showed an Activity [4] of 0.049 equiv.

With O=C(/C=C/C=C/c1ccc(O)cc1)c1ccccc1 the inhibition [5] was “Active”, the inhibition [6] was “Active” and the Activity [7] was 0.29 equiv. It also gave an IC50 [1] of 32.5 µM, an Activity [3] of 4.8 equiv and an IC50 [2] of 1.2 µM.

With COc1cc(/C=C/C(=O)CC(=O)/C=C/c2ccc(O)c(OC)c2)ccc1O [CURCUMIN] the inhibition [8] was “Active”, the inhibition [9] was “Active” and the inhibition [10] was “Active”. For the same compound, the inhibition [11] was “Active”, the Activity [12] was 1.42 equiv and the IC50 [1] was 32.5 µM. It also gave an Activity [13] of 3.9 equiv and an IC50 [2] of 1.8 µM.

For COc1ccc(/C=C/C=C/C(=O)c2ccccc2)cc1, the inhibition [14] was “Active”, the inhibition [15] was “Active” and the inhibition [5] was “Active”. It also gave an Activity [16] of 0.17 equiv.

N#CC(C#N)C(/C=C/c1ccccc1)CC(=O)c1ccccc1 (stereo not given) gave an Activity [17] of 0.9 equiv, an IC50 [1] of 74 µM and an Activity [3] of 2.7 equiv. It also gave an IC50 [2] of 3.3 µM.

In the case of O=C(/C=C/C=C/c1ccccc1)c1ccccc1, the inhibition [5] is reported as “Active”, the inhibition [6] is reported as “Active” and the Activity [4] is reported as 0.06 equiv.

Work on COc1ccc(C(=O)/C=C/C=C/c2ccccc2)cc1 yielded an Activity [16] of 0.12 equiv.
